Experimental data: patent publication US7939097B2, “Intraocular lens containing releasable medication” (Carl Zeiss Meditec SAS, priority 1996, dated 2011)
Where “and” joins values, the source holds several entries; their conditions need not be identical. Equal values may be shown once.

Tests used:
[1] = tested on: inflammatory reactions of the eye; experiment: Clinical examination of rabbit eyes implanted with indomethacin PMMA lenses (Example 3); assay type: in vivo; conditions: PMMA IOL impregnated with indomethacin implanted in rabbit eye, opposite eye as control
[2] = tested on: inflammatory reactions of the eye; assay type: in vivo
Method: (§2) Samples of aqueous humor (approximately 150 μl) and plasma (approximately 2 ml) were taken at random intervals.

[3] = in vivo; conditions: rabbit
Method: as §2

[4] = In vitro kinetics of release of diclofenac at 35° C. over 14 days; assay type: physicochemical; conditions: release in 0.9% NaCl at 35° C.
Method: The following experiments were intended to determine more precisely the kinetics of release of diclofenac (in vitro experiments). As previously, the quantities released were measured by sampling the release medium (0.9% neutral NaCl solution) at intervals for measurement and renewing it for a new interval. The samples were taken after 6 hours and 24 hours and then every 24 hours for 14 days in total. To approximate the actual (i.e. in vivo) conditions of use more closely, release was effected at 35° C. The IOLs were impregnated by two different methods. […] A second experiment was carried out without sterilization, the IOLs remaining in the diclofenac solution for 24 hours. The quantities released were substantially the same, to within ±10%, and are set out in the table below in hours (H), days (D) and μg/ml.

[5] = Forced release of diclofenac after autoclaving and 10 days in the impregnation solution (Example 10); assay type: physicochemical
Method: Each of three hydrophilic acrylic implants of the type used in Example 9 was first introduced into the container with a 0.9% NaCl solution containing 1.5 mg/ml diclofenac solution. The container was then autoclaved at 122° C. for 30 minutes. After autoclaving, the IOLs were left in their impregnation solution for 10 days at ambient temperature. The procedure described in Example 9 was used to release the absorbed quantities of the diclofenac from the IOLs. The amounts released were respectively 83.57 μg, 101.66 μg, 84.16 μg or an average of 89.79 μg per implant.

[6] = Diclofenac absorbed versus time in the impregnation solution after sterilization (Example 12); assay type: physicochemical; conditions: for Average amount of diclofenac released (absorbed) per IOL: average of three IOLs; for amount of diclofenac released (absorbed) per IOL: individual tests
Method: This example included tests on 21 IOLs to ascertain the time it takes for the amount of diclofenac absorbed by the IOL to reach its equilibrium. Each IOL was immersed in 5 ml of 1.5 mg/ml diclofenac solution in deionized water and then sterilized as is conventional, namely at 120° C. for a period of 30 minutes. The sterilized IOLs were then allowed to cool and left in the impregnation solution at room temperature for respective periods of 10 days, 20 days, 35 days, 41 days, 50 days and 65 days. At the end of each of these periods, three IOLs were removed and the quantity of diclofenac was then measured by forced release comprising cycles in a double boiler at 97° C. followed by rest periods until the diclofenac was entirely released from the IOLs.
The amounts of diclofenac released and corresponding to the amounts absorbed for the respective periods are expressed in μg.

[7] = Diclofenac fixed from lower-concentration solutions after prior sterilization (Example 13); assay type: physicochemical; conditions: pre-sterilized hydrophilic acrylic IOL; for quantity of diclofenac fixed per IOL: 4 days of immersion
Method: In these tests, the hydrophilic acrylic IOLs were first sterilized in their sealed containers in a 0.9% NaCl solution, in accordance with the standard sterilization procedure used for conventional IOLs. The solution contained no active ingredient of any kind. After sterilization at 121° C. for 30 minutes the containers were opened and the IOLs transferred to other containers which had previously been filled with a 0.9% NaCl solution including respectively 0.9 mg/ml, 0.45 mg/ml and 0.225 mg/ml of diclofenac. The IOLs remained immersed in the impregnation solution for 4 days in each case. Thereafter the absorbed quantities of diclofenac were driven out of the IOLs in double boilers at 97° C. as described above. […] In a second series of tests conducted with an impregnation solution of 0.9% NaCl with 0.9 mg/ml under the same conditions as in the first series, except that the residence in the impregnation solution was 49 days. The resulting average quantity of diclofenac fixed by the IOLs was 502 μg per implant.

[8] = In vitro release of diclofenac from polyHEMA soft IOLs, impregnated for 7 days (Example 8); assay type: physicochemical; conditions: for Released quantities: polyHEMA IOL impregnated 7 days in saturated diclofenac; for Cumulative or total released quantities: polyHEMA IOL impregnated 7 days
Method: (§1) Initially, polyHEMA soft IOLs were impregnated by immersing them in a solution saturated with diclofenac (1.8 mg/ml, prepared by dissolving sodium diclofenac in a 0.9% solution of NaCl), at room temperature for 72 hours, carefully rinsed and then released into 1 ml of a 0.9% NaCl solution. After 6 hours, 24 hours and 96 hours, the diclofenac was measured in the release solution by HPLC, after which the IOL was rinsed and, for the intermediate durations, left to release in a new solution. It is understood that the released quantities correspond to the quantities previously absorbed and fixed in the IOLs The experiment of Example 7 was repeated leaving the IOLs in the saturated solution for 7 days instead of 3. The quantities released were checked after 6 hours and 24 hours.

[9] = Saturated diclofenac solution in 0.9% NaCl; assay type: physicochemical; conditions: sodium diclofenac dissolved in 0.9% NaCl solution
Method: as §1, with “In all the preceding examples the diclofenac was used at concentrations” for “The experiment”, “1.8 mg/ml or 1.5 mg/ml that is at or only slightly below” for “Example 7 was repeated leaving”, “saturation level.” for “IOLs in the saturated solution for 7 days instead of 3. The quantities released were checked after 6 hours and 24 hours.”

[10] = tested on: postoperative inflammation of the eye; experiment: Anti-inflammatory effect of diclofenac-impregnated IOL after cataract operation in rabbits (Example 14); assay type: in vivo, rabbit; conditions: diclofenac-impregnated IOL versus same IOL without medicated product in opposite eye, three rabbits
Method: A test was carried out on three rabbits which were implanted with hydrophilic acrylic IOLs impregnated by autoclaving in a 1.5 mg/ml diclofenac solution at 120° C. for 30 minutes as described in Example 9 above. The object of this test was to determine the anti-inflammatory effect of diclofenac after a cataract operation. After extraction, the crystalline lens in each eye, the left eye was fitted with an impregnated IOL according to the invention and the right eye with the same kind of IOL with no medicated product therein. The eyes of the rabbit were examined by an operator on day one and microscopically by an ophtalmologist on day 7 and day 14 after the operation. The observations are set out in the following table.

[11] = In vitro release of diclofenac from polyHEMA soft IOLs, impregnated for 72 hours (Example 7); assay type: physicochemical
Method: as §1, with “IOLs” for “IOLs The experiment of Example 7 was repeated leaving the IOLs in the saturated solution for 7 days instead of 3. The quantities released were checked after 6 hours and 24 hours.”

Compound: COc1ccc2c(c1)c(CC(=O)O)c(C)n2C(=O)c1ccc(Cl)cc1 [indomethacin]
- clinical examination: inflammatory reactions [1]: inflammatory reactions had disappeared by the tenth day from implantation
- clinical observations: inflammatory reactions ([2]; polyHEMA lens impregnated with indomethacin, rabbit eye): inflammatory reactions disappeared at least as quickly as in Example 3
- clinical observations: tolerance of the lenses ([2]; rabbit, in vivo): well tolerated
- concentration at 7 day [3]: ~0.11 µg/mL

Compound: O=C(O)Cc1ccccc1Nc1c(Cl)cccc1Cl [diclofenac]
- quantities released (Q) ([4]; IOL saturated with diclofenac, medium renewed each interval, 6 H): 95 µg/mL
- quantities released (Q) ([4]; medium renewed, 2 D): 40 µg/mL
- quantities released (Q) ([4]; medium renewed, 3 D): 30 µg/mL
- quantities released (Q) ([4]; medium renewed, 4 D): 20 µg/mL
- quantities released (Q) ([4]; medium renewed, 5 D): 18 µg/mL
- quantities released (Q) ([4]; medium renewed, 6 D): 12 µg/mL
- quantities released (Q) ([4]; medium renewed, 7 D): 10 µg/mL
- quantities released (Q) ([4]; medium renewed, 8 D): 10 µg/mL
- quantities released (Q) ([4]; medium renewed, 9 D): 11 µg/mL
- quantities released (Q) ([4]; medium renewed, 10 D): 12 µg/mL
- quantities released (Q) ([4]; medium renewed, 11 D): 14 µg/mL
- quantities released (Q) ([4]; medium renewed, 12 D): 16 µg/mL
- quantities released (Q) ([4]; medium renewed, 13 D): 18 µg/mL
- quantities released (Q) ([4]; medium renewed, 14 D): 20 µg/mL
- quantities released (Q) ([4]; medium renewed, 24 H): 80 µg/mL
- average amount of diclofenac released per implant ([5]; as Example 10, average of three implants): 89.79 µg
- amounts of diclofenac released per implant ([5]; hydrophilic acrylic IOL autoclaved at 122° C. for 30 minutes in 1.5 mg/ml diclofenac in 0.9% NaCl, then 10 days in the solution at ambient temperature, individual implants): 83.57 µg and 101.66 µg and 84.16 µg
- Average amount of diclofenac released (absorbed) per IOL ([6]; Day 0): 33.58 µg
- Average amount of diclofenac released (absorbed) per IOL ([6]; Day 35): 92.96 µg
- Average amount of diclofenac released (absorbed) per IOL ([6]; Day 41): 102.39 µg
- Average amount of diclofenac released (absorbed) per IOL ([6]; Day 50): 104.33 µg
- Average amount of diclofenac released (absorbed) per IOL ([6]; Day 65): 102.37 µg
- amount of diclofenac released (absorbed) per IOL ([6]; sterilized at 120° C. for 30 minutes in 1.5 mg/ml diclofenac in deionized water, Day 0): 36.01 µg and 31.13 µg and 33.59 µg
- amount of diclofenac released (absorbed) per IOL ([6]; sterilized, then left in impregnation solution at room temperature, Day 10): 83.57 µg and 101.66 µg and 84.16 µg
- amount of diclofenac released (absorbed) per IOL ([6]; sterilized, then left in impregnation solution, Day 20): 92.68 µg and 95.60 µg and 109.99 µg
- amount of diclofenac released (absorbed) per IOL ([6]; sterilized, then left in impregnation solution, Day 35): 86.65 µg and 100.06 µg and 92.18 µg
- amount of diclofenac released (absorbed) per IOL ([6]; sterilized, then left in impregnation solution, Day 41): 106.94 µg and 108.33 µg and 91.90 µg
- amount of diclofenac released (absorbed) per IOL ([6]; sterilized, then left in impregnation solution, Day 50): 85.29 µg and 114.80 µg and 112.90 µg
- amount of diclofenac released (absorbed) per IOL ([6]; sterilized, then left in impregnation solution, Day 65): 107.06 µg and 98.64 µg and 101.41 µg
- quantity of diclofenac fixed per IOL ([7]; 0.225 mg/ml diclofenac in 0.9% NaCl): 70 µg
- quantity of diclofenac fixed per IOL ([7]; 0.45 mg/ml diclofenac in 0.9% NaCl): 148 µg
- quantity of diclofenac fixed per IOL ([7]; 0.90 mg/ml diclofenac in 0.9% NaCl): 276 µg
- average quantity of diclofenac fixed per implant ([7]; 0.9 mg/ml diclofenac in 0.9% NaCl, 49 days in the impregnation solution): 502 µg
- Released quantities ([8]; 6 hours): 122 µg/mL
- Released quantities ([8]; 24 hours): 109 µg/mL
- Cumulative or total released quantities ([8]; 6 hours): 122 µg/mL
- Cumulative or total released quantities ([8]; 24 hours): 231 µg/mL
- concentration of solution saturated with diclofenac [9]: 1800 µg/mL
- anti-inflammatory effect, summary [10]: real anti-inflammatory effect
- Released quantities ([11]; polyHEMA IOL impregnated 72 hours at room temperature in saturated diclofenac, release into 1 ml 0.9% NaCl, 6 hours): 127 µg/mL
- Cumulative or total released quantities ([11]; polyHEMA IOL impregnated 72 hours, 6 hours): 127 µg/mL
- Cumulative or total released quantities ([11]; polyHEMA IOL impregnated 72 hours, 24 hours): 222 µg/mL
- Cumulative or total released quantities ([11]; polyHEMA IOL impregnated 72 hours, 96 hours): 333 µg/mL
- Released quantities ([11]; polyHEMA IOL impregnated 72 hours, release into new 1 ml 0.9% NaCl, 24 hours): 95 µg/mL
- Released quantities ([11]; polyHEMA IOL impregnated 72 hours, release into new 1 ml 0.9% NaCl, 96 hours): 111 µg/mL
